In patent US7098313B2, “DNA sequences coding for a polyol carrier and their use, in particular for the preparation of transgenic plants” (Centre National de la Recherche Scientifique, priority 2000, dated 2006):

Tests used:
AgMaT1 expression = conditions: saline stress for 4 weeks, daily watering with 300 mM of NaCl; RT-PCR
Protocol: The total RNA of celery phloem was isolated according to the method of Kay et al. (1987). The first strand of cDNA was reverse transcribed from the total RNA with the oligo dT primer by using the reverse transcriptase SuperScript™ II (Stratagene). […] The PCR conditions were as follows: 2 minutes at 95° C. then 30 cycles comprising denaturation for 30 seconds at 95° C., fixation for one minute at 47° C. and extension for 45 seconds at 72° C. The PCR products were analyzed by agarose gel electrophoresis and the intensity of the signal obtained was quantified using Photoshop 5.0 software (Adobe systems Inc.). The extension factor elF4A(10) (Mandel et al., 1995) was used as control gene, the expression of which is invariable.
The expression of AgMaT1 was monitored in plants having been subjected to saline stress for 4 weeks (daily watering with 300 mM of NaCl, Noiraud et al., 2000). The phloem of these plants as well as of the corresponding control plants (watered with water not containing NaCl) was removed in order to extract the RNA which was used to carry out RT-PCR reactions.

AgMaT1 = experiment: Transport of radiolabelled mannitol in yeast cells expressing AgMaT1, with competitors; type: cell-based, Apium graveolens L.; conditions: MaDH4 S. cerevisiae expressing AgMaT1; 500 μM [3H]-mannitol, pH 4.5; competitor added 30 seconds before
Protocol: The cells were cultured until the start of the logarithmic phase (corresponding to an absorbance of […]), washed in distilled water and resuspended at 1% (weight/volume) in SC medium buffered to pH 4.5 with 25 mM MES. A 100 μl aliquot fraction of the cell suspension was incubated for 60, 120, 180 and 300 seconds in 100 μl of a solution containing of 500 μM [^3H]-mannitol. The reaction was stopped by adding 8 ml of water at 4° C. and by filtration through glass fibre filters (Sartorius). The radioactivity incorporated in the yeast cells was determined by counting using liquid scintillation (Packard). For the experiments with inhibitors or competitors, the product was added 30 seconds before the radioactive mannitol.
For a subsequent characterization of the function of the AgMaT1 protein, it was necessary to express the carrier in a functional manner in a heterologous system such as yeast cells. The cDNA of AgMaT1 was sub-cloned in the PstI/XhoI sites of the YEP 112A1XE shuttle vector which has a promoter/terminator box of the gene of alcohol dehydrogenase ADH1 of S. cerevisiae (Riesmeier et al., 1992). The competent MaDH4 cells were transformed with this construction and YEP 112A1XE was used as control.
All of the constructions were firstly tested for their ability to grow on mannitol as the only carbon source. […] The cells expressing AgMaT1 could grow very well on this polyol. In order to directly test the ability of the transformed cells to transport mannitol, the yeast cells were incubated in a medium containing [^3H]-mannitol for a few seconds to several minutes, the cells were washed and the radioactivity absorbed was measured by […] scintillation counting. […] However, the MaDH4 yeast strains, expressing AgMaT1, transport the [^3H]-mannitol at high speeds when they grow on a medium containing mannitol. The same result is obtained with the cells of transformed yeast growing on glycerol (data not indicated).

SMILES	expression of AgMaT1 in the phloem (control plants taken as base 100) (AgMaT1 expression)	inhibition of the absorption of mannitol (AgMaT1)
[Cl-].[Na+] [NaCl]	500%	
OC[C@@H](O)[C@H](O)[C@H](O)[C@@H](O)CO [dulcitol]		inhibiting by half
O[C@H]1[C@H](O)[C@@H](O)[C@H](O)[C@@H](O)[C@H]1O [myo-inositol]		inhibiting by half
OC[C@@H](O)[C@@H](O)[C@H](O)[C@@H](O)CO [sorbitol]		inhibiting by half
OC[C@@H](O)[C@H](O)[C@@H](O)CO [xylitol]		inhibiting by half
